Measured values taken from patent publication US20120064175A1, “HSP90 Inhibitors for Treating Non-Small Cell Lung Cancer in Wild-Type EGFR and/or KRAS Patients” (Synta Pharmaceuticals Corp., priority 2010, published 2012).

Legend:
[1] = system: RERF-LC-AI human squamous non-small cell lung cancer cell line; test: Nude mouse xenograft model with RERF-LC-AI human tumor cells; type: in vivo; details: RERF-LC-AI^IVP tumors, i.p., 5 days per week, 15 doses; heading only, no data given
Description: The human squamous non-small cell lung cancer cell line, RERF-LC-AI (RCB0444; S. Kyoizumi, et al., Cancer. Res. 45:3274-3281, 1985), was obtained from the Riken Cell Bank (Tsukuba, Ibaraki, Japan). The cell line was cultured in growth media prepared from 50% Dulbecco's Modified Eagle Medium (high glucose), 50% RPMI Media 1640, 10% fetal bovine serum (FBS), 1% 100×L-glutamine, 1% 100× penicillin-streptomycin, 1% 100× sodium pyruvate and 1% 100×MEM non-essential amino acids. FBS was obtained from American Type Culture Collection (Manassas, Va., USA) and all other reagents were obtained from Invitrogen Corp. (Carlsbad, Calif., USA). […]
The growth media was replaced every 2-3 days until the flask became 90% confluent, typically in 5-7 days. […] The supernatant was aspirated and the cell pellet was resuspended in 10 ml of growth media and the cell number determined using a hemocytometer. […]
Seven to eight week old, female Crl:CD-1-nuBR (nude) mice were obtained from Charles River Laboratories (Wilmington, Mass., USA) Animals were housed 4-5/cage in micro-isolators, with a 12 hr/12 hr light/dark cycle, acclimated for at least 1 week prior to use and fed normal laboratory chow ad libitum. […] Tumor volumes (V) were calculated by caliper measurement of the width (W), length (L) and thickness (T) of tumors using the following formula: V=0.5236×(L×W×T). […]

Kasumi-1 cells = details: acute myeloid leukemia cell line that harbors a mutation in c-Kit; cited from earlier work
FLT3 with Hsp90 = details: cited from earlier work
[2] = system: leukemia cells that express either wild type FLT3 or FLT3-ITD mutations; details: Yao, et al. 2003; cited from earlier work

For CCc1cc(-c2nnc(S)n2-c2ccc(O)c3c2ccn3C(C)C)c(O)cc1O [Compound 48, 3-(2,4-DIHYDROXY-5-ETHYL- PHENYL)-4-(1-ISOPROPYL-7- HYDROXY-INDOL-4-YL)-5- MERCAPTO-[1,2,4] TRIAZOLE], which “Anti-tumor activity against human tumor cells in a nude mouse xenograft model” value [1] is on record?
Its value is “Displays Anti-tumor Activity”.

With C=CCNC1=C2C[C@@H](C)C[C@H](OC)[C@H](O)[C@@H](C)/C=C(\C)[C@H](OC(N)=O)[C@@H](OC)/C=C\C=C(/C)C(=O)NC(=CC1=O)C2=O [Compound 17AAG, 17-allylamino-17-demethoxygeldanamycin] as the molecule, how does the Apoptosis (Kasumi-1 cells) read?
The Apoptosis was “induce apoptosis”.

And the “Effect on the association of FLT3 with Hsp90” value (FLT3 with Hsp90)?
The value was “disrupt the association of FLT3 with Hsp90”.

And the “Growth of leukemia cells” value [2]?
Its value is “inhibited”.
